ChEMBL document CHEMBL4706752 (ACS Med Chem Lett, 2021)

What was measured:
Mus musculus [1] = assay: Antiinflammatory activity in DBA/1J mouse model of collagen-induced arthritis assessed as reduction in histological score at 10 mg/kg, po dosed twice daily for 21 days; format: functional; settings: 504 h, time 21 day
Mus musculus [2] = assay: Suppression of ear thickness in C57BL/6 mouse model of IL-23 induced acanthosis model of psoriasis assessed as AUC of %change in ear thickness at 10 mg/kg, po BID for 10 days measured every other day; format: functional; settings: time 10 day
[3] = biological target: T1, Nuclear receptor subfamily 1 group I member 2 (Homo sapiens, UniProt O75469); assay: Inhibition of PXR (unknown origin)
T1 sequence (O75469 whole entry): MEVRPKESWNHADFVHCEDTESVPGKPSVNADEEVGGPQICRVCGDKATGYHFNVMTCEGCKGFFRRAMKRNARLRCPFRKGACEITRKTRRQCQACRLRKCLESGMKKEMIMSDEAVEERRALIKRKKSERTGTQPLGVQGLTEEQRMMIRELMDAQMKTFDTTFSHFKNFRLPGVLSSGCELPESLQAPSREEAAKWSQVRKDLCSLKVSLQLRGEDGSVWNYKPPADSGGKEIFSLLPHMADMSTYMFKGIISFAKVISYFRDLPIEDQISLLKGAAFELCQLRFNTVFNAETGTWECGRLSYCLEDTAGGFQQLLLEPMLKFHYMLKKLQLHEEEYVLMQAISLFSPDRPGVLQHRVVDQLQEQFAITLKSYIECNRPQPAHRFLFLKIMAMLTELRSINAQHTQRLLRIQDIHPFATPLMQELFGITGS

[4] = Decrease in LCN2 gene expression in C57BL/6 mouse model of IL-23 induced acanthosis model of psoriasis at 10 mg/kg, po BID for 10 days by RT-PCR analysis; format: functional; settings: C57BL/6, po, 240 h, time 10 day
[5] = Cmax in Sprague-Dawley rat at 4 mg/kg, po; format: ADME, organism-based; design: route oral, dose 4 mg/kg; settings: in vivo
[6] = Unbound volume of distribution at steady state in Sprague-Dawley rat at 2 mg/kg, iv; format: ADME, organism-based; settings: in vivo
[7] = Decrease in IL-17a gene expression in C57BL/6 mouse model of IL-23 induced acanthosis model of psoriasis at 10 mg/kg, po BID for 10 days by RT-PCR analysis; format: functional; settings: C57BL/6, po, 240 h, time 10 day
[8] = Tmax in dog at 2 mg/kg, po; format: ADME, organism-based, Canis lupus familiaris; settings: in vivo
[9] = Metabolic stability in mouse liver microsomes assessed as compound remaining after 10 mins; format: ADME, Microsome; settings: read-out: Stabilty
Mus musculus [10] = assay: Antiinflammatory activity in DBA/1J mouse model of collagen-induced arthritis assessed as reduction in arthritic score at 5 to 20 mg/kg, po dosed twice daily for 21 days; format: functional, organism-based; settings: dose 5-20 mg/kg, time 21.0 day
[11] = Unbound volume of distribution at steady state in Balb/c mouse at 2 mg/kg, iv; format: ADME, organism-based; settings: in vivo
Cytochrome P450 2C19 = Cytochrome P450 2C19 (Homo sapiens, UniProt P33261); assay: Inhibition of CYP2C19 (unknown origin); format: ADME
Chain of Cytochrome P450 2C19 (P33261 whole entry): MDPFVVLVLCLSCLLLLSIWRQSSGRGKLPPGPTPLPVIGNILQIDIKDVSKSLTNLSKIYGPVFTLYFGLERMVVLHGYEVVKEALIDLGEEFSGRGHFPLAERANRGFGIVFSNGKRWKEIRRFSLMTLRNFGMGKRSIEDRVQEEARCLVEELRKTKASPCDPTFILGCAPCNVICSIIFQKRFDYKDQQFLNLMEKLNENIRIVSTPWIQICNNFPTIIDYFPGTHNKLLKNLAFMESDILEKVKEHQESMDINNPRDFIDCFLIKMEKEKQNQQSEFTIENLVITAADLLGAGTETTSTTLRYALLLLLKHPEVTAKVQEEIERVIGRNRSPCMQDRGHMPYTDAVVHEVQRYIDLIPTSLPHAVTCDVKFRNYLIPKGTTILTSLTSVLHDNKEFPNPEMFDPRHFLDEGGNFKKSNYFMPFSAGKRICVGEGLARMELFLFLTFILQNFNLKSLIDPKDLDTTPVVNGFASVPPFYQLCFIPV

[12] = Cmax in dog at 2 mg/kg, po; format: ADME, organism-based, Canis lupus familiaris; design: route oral, dose 2 mg/kg; settings: in vivo
[13] = Tmax in Balb/c mouse at 4 mg/kg, po; format: ADME, organism-based; settings: in vivo
Mus musculus [14] = assay: Antiinflammatory activity in DBA/1J mouse model of collagen-induced arthritis assessed as reduction in plasma IL-6 level at 10 mg/kg, po dosed twice daily for 21 days (reference value: 80 +/- 6 pg/ml); format: functional; settings: time 21 day
[15] = Half life in cynomolgus monkey at 1 mg/kg, iv; format: ADME, organism-based, Macaca fascicularis; settings: in vivo
[16] = Oral bioavailability in cynomolgus monkey at 2 mg/kg; format: ADME, organism-based, Macaca fascicularis; settings: in vivo
[17] = Cmax in Balb/c mouse at 4 mg/kg, po; format: ADME, organism-based; design: route oral, dose 4 mg/kg; settings: in vivo
[18] = Half life in Balb/c mouse at 2 mg/kg, iv; format: ADME, organism-based; settings: in vivo
Mus musculus [19] = assay: Antiinflammatory activity in DBA/1J mouse model of collagen-induced arthritis assessed as reduction in histological score at 20 mg/kg, po dosed twice daily for 21 days; format: functional; settings: 504 h, time 21 day
Cytochrome P450 3A4 = Cytochrome P450 3A4 (Homo sapiens, UniProt P08684); assay: Inhibition of CYP3A4 (unknown origin); format: ADME
Chain of Cytochrome P450 3A4 (P08684 whole entry): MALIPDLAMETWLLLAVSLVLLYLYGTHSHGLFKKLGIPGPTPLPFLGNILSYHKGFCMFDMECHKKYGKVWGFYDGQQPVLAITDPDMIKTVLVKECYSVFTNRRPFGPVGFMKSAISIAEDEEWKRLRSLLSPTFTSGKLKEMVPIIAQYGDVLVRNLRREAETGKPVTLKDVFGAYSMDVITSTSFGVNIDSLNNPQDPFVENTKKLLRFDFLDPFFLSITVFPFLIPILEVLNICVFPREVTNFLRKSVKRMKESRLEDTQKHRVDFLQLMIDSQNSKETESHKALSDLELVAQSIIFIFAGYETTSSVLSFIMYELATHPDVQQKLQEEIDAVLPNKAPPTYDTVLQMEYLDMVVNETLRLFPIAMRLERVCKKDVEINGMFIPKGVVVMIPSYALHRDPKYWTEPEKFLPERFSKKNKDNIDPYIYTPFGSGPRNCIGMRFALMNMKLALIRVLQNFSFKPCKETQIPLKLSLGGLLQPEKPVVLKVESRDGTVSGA

[20] = Unbound volume of distribution at steady state in cynomolgus monkey at 1 mg/kg, iv; format: ADME, organism-based, Macaca fascicularis; settings: in vivo
[21] = biological target: T2, Oxysterols receptor LXR-beta (Homo sapiens, UniProt P55055); assay: Inhibition of LXRbeta (unknown origin)
T2 sequence (P55055 whole entry): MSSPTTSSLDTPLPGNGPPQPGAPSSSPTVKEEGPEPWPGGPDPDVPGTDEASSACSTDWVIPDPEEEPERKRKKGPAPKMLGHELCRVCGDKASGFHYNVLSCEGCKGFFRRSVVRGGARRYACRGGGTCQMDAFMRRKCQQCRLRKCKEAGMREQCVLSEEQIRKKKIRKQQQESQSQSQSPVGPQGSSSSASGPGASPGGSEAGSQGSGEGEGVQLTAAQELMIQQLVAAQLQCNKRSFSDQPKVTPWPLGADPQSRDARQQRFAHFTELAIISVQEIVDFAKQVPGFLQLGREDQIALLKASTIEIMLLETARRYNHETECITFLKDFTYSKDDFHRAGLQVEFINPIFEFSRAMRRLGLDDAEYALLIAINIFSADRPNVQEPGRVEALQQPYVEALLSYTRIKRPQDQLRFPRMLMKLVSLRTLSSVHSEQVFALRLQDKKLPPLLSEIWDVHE

Mus musculus [22] = assay: Suppression of ear thickness in C57BL/6 mouse model of IL-23 induced acanthosis model of psoriasis at 5 to 20 mg/kg, po BID for 10 days measured every other day; format: functional, organism-based; settings: dose 5-20 mg/kg, time 10.0 day
[23] = Decrease in IL-17a gene expression in C57BL/6 mouse model of IL-23 induced acanthosis model of psoriasis at 5 mg/kg, po BID for 10 days by RT-PCR analysis; format: functional; settings: C57BL/6, po, 240 h, time 10 day
Mus musculus [24] = assay: Antiinflammatory activity in DBA/1J mouse model of collagen-induced arthritis assessed as reduction in histological score at 5 mg/kg, po dosed twice daily for 21 days; format: functional; settings: 504 h, time 21 day
[25] = biological target: T3, Nuclear receptor ROR-beta (Homo sapiens, UniProt Q92753); assay: Inhibition of RORbeta (unknown origin)
T3 sequence (Q92753 whole entry): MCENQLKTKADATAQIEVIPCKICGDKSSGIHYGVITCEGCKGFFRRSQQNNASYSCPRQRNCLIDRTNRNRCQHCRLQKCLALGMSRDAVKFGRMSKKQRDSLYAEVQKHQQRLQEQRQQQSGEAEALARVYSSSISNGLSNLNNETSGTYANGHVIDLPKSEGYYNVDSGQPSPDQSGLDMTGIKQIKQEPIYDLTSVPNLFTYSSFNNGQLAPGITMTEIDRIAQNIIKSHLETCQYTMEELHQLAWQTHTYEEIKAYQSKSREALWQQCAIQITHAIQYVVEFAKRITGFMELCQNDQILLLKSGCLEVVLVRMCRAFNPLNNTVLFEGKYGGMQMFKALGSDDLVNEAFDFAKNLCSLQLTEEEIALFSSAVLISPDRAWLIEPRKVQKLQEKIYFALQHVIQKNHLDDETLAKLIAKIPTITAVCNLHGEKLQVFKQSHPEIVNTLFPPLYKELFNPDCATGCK

EC50 [3]: > 10 µM | Cmax [5]: 1600 nM | fVdss [6]: 2.5 L/kg | Tmax [8]: 7 h | remaining at 10 min [9]: 98% | fVdss [11]: 2.2 L/kg | IC50 (Cytochrome P450 2C19): 19 µM | Cmax [12]: 1700 nM | Tmax [13]: 2 h | half-life [15]: 12 h | bioavailability [16]: 73% | Cmax [17]: 2800 nM | half-life [18]: 11 h | IC50 (Cytochrome P450 3A4): > 20 µM | fVdss [20]: 2.7 L/kg | EC50 [21]: > 10 µM | EC50 [25]: > 10 µM
Compound: C[C@@](O)(CS(C)(=O)=O)C(=O)N[C@@H]1CC[C@@]2(S(=O)(=O)c3ccc(F)cc3)c3ccc(C(F)(C(F)(F)F)C(F)(F)F)nc3CC[C@@H]12
inhibition in vivo at 10 mg/kg (Mus musculus [1]): 60% | Activity (Mus musculus [2]): 66.5% | inhibition in vivo at 10 mg/kg [4]: 85.3% | inhibition in vivo at 10 mg/kg [7]: 73.8% | Activity (Mus musculus [10]): Dose-dependent effect | Activity (Mus musculus [14]): 19 pg/mL | inhibition in vivo at 20 mg/kg (Mus musculus [19]): 55% | Activity (Mus musculus [22]): Dose-dependent effect | inhibition in vivo at 5 mg/kg [23]: 57.5% | inhibition in vivo at 5 mg/kg (Mus musculus [24]): 59%
